Experimental data from patent US6890954B1, “Uses of 2-bromopalmitate in the treatment of autoimmune disease” (priority 1999, dated 2005).

Tests used:
Assay type in all cases: cell-based
[1] = system: Fyn(16)-eGFP; assay: Localization of Fyn(16)-eGFP in COS-1 cells (fluorescence microscopy, P100/S100 fractionation)
Description: COS-1 cells were transfected with a Fyn(16)-eGFP construct (12) and seeded onto 25-mm glass coverslips 2 days prior to the experiment. Cells were treated overnight with or without 2 bromopalmitate as described above. Plates were washed with PBS and coverslips were mounted onto glass slides in PBS and observed with a 40× and 100×oil immersion lens on a Zeiss Axiophot 2 microscope and photographed with Kodak TMAX 400.
To investigate the effect of 2-bromopalmitate on the intracellular localization of Fyn more precisely, COS-1 cells expressing a Fyn(16)-eGFP construct were examined by immunofluorescence. This construct contains the first 16 amino acids of Fyn fused in frame to eGFP; the chimera is targeted to the plasma membrane and detergent resistant microdomains (12). Cells were cultured with no treatment, with 2-bromopalmitate or with 2-hydroxymyristate, a known myristoylation inhibitor (40,41), as described above, and were examined live by fluorescence microscopy.
Analysis of the subcellular localization of Fyn(16)-eGFP in the presence of 2-bromopalmitate and 2-hydroxymyristate was performed as described above for steady-state Fyn. As depicted in FIG. 2B, in the absence of treatment, 80% of Fyn(16)-eGFP Fyn was membrane bound, whereas in cells treated with 2-bromopalmitate and 2-hydroxymyristate, 65% and 78% of Fyn(16)-eGFP were cytosolic, respectively.

[2] = molecular target: T1, Fyn (Homo sapiens, UniProt P06241); assay: Fyn fatty acylation (IC13/IC16 incorporation) in transfected COS-1 cells; conditions: for effect of palmitate analog on Fyn fatty acylation: COS-1 cells, data not shown
T1 construct: expressed in transfected cells; host or cells: COS-1
T1 sequence (P06241 whole entry, species assumed): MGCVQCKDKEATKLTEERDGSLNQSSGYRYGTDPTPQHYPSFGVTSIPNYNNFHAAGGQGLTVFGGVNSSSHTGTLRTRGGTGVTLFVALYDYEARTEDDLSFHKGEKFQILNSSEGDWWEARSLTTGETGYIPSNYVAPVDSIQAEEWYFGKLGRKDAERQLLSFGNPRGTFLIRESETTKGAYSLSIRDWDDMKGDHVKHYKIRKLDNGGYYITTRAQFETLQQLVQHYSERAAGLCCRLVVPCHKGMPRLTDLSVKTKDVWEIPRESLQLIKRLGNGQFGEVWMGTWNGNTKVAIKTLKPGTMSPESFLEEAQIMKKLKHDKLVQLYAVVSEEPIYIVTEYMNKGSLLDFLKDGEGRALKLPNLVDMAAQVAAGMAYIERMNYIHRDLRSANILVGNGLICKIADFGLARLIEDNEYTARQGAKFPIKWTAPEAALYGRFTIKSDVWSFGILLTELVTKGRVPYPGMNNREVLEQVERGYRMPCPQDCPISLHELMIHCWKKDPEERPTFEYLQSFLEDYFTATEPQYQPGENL
Description: The syntheses of 13-[^125I]-iodotridecanoic acid (IC13)or 16-[^125I]-iodohexanoic acid (IC16) were carried out as described previously (39). Cell labeling was carried out as described (12,13) with modifications. Briefly, each 60 mm plate of Fyn transfected COS-1 cells was incubated O/N in DMEM containing 2.5% FBS, 0.5% defatted BSA (Sigma) with or without 100 μM 2-bromopalmitate or 50 μM polyunsaturated fatty acid. Prior to labeling, the cells were incubated for 1 hr with 1 ml of DMEM containing 2% dialyzed FBS, then labeled for 4 hours with 25-50 μCi IC13 or IC16 in DMEM containing 2% dialyzed FBS, 0.5% defatted BSA with or without 2-bromopalmitate or polyunsaturated fatty acid. Labeled cells were washed three times with cold STE (100 mM NaCl, 10 mM Tris pH 7.4, 1 mM EDTA) and lysed in 0.6 ml of cold RIPA buffer containing protease inhibitors (10 μg/ml each of benzamidine, AEBSF, TPCK and TLCK, 1.5 μg/ml each of Leupeptin, Pepstatin A and Aprotinin). Lysates were clarified at 100,000×g for 15 min at 4° C. in a Beckman TL-100 ultracentrifuge. Lysates were immunoprecipitated with rabbit anti-Fyn antibody and protein A-agarose. Immunoprecipitates were washed three times with cold RIPA buffer and suspended in 1× sample buffer containing 100 mM dithiothreitol and subjected to SDS-PAGE. Gels were dried between cellophane and analyzed by phosphorimaging after 12-36 hours exposure. Experiments in Jurkat T cells were carried out according to the above protocol using 2×10^7 cells per experiment, and reducing the incubation time with 2-bromopalmitate to 3-4 hours.
A number of palmitic acid analogs were screened for their ability to inhibit Fyn palmitoylation. COS-1 cells were transfected with cDNA encoding Fyn. Three days after transfection, the cells were labeled with either [^35S]-methionine, 13-[^125I]-iodotridecanoic acid (IC13), an iodinated myristate analog, or 16-[^125I]-iodohexanoic acid (IC16), an iodinated palmitic acid analog (39), in the presence or absence of nonradioactive palmitate analogs. Cells were lysed, immunoprecipitated with anti-Fyn antibody, and analyzed by SDS-PAGE and phosphorimaging. […] When normalized for total protein levels, 70% of Fyn myristoylation and over 90% of Fyn palmitoylation was inhibited in the presence of 2-bromopalmitate. Treatment of cells with other analogs, including 2-hydroxypalmitate, palmitoleic acid and 16-hydroxypalmitate had no effect (data not shown).
To test this hypothesis, Fyn transfected COS-1 cells were incubated O/N with or without 50 μM arachidonic acid (20:4) or eicosapentaenoic acid (20:5), then labeled with IC13 or IC16. Total protein levels were monitored by immunoblotting aliquots of each sample with anti-Fyn antibody (FIG. 8A, lower panel).

[3] = system: Fyn; assay: DRM localization of Fyn in PUFA-treated COS-1 cells (sucrose gradient); conditions: COS-1, 50 μM PUFA; untreated 30%
Description: For isolation of detergent resistant microdomains in PUFA-treated COS-1 cells, a confluent 100 mm plate of COS-1 cells transiently transfected with Fyn cDNA was washed with S-IE and subjected to the same procedure described above. Fractions were analyzed for the presence of Fyn by immunoblotting.
Whether 20:4 and 20:5 inhibited localization of Fyn to detergent resistant microdomains in COS-1 cells was examined next. Cells were treated with or without polyunsaturated fatty acids as described above and layered on the bottom of a sucrose gradient as described above. Fractions were collected and analyzed by immunoblotting with anti-Fyn antibody.

| SMILES | effect of palmitate analog on Fyn fatty acylation [2] | inhibition of incorporation of IC16 into Fyn (palmitoylation) ([2]; COS-1, 50 μM PUFA overnight) | Fyn found in detergent resistant microdomains [3] | also measured |
| --- | --- | --- | --- | --- |
| CCCCCCCCCCCCC(O)C(=O)O (stereo not shown) [2-hydroxymyristate, reference compound] |  |  |  | Fyn(16)-eGFP cytosolic ([1]; COS-1, 100 μM overnight, P100/S100, untreated 80% membrane bound): 78%; Fyn(16)-eGFP distribution by fluorescence microscopy ([1]; COS-1 live cells, 100 μM overnight): reduced plasma membrane staining |
| CCCCCCCCCCCCCCC(O)C(=O)O (stereo not shown) [2-hydroxypalmitate] | no effect |  |  |  |
| O=C(O)CCCCCCCCCCCCCCCO [16-hydroxypalmitate] | no effect |  |  |  |
| CCCCC/C=C\C/C=C\C/C=C\C/C=C\CCCC(=O)O [arachidonic acid] |  | 55% | 16% | effect on Fyn myristoylation (IC13 incorporation) ([2]; COS-1, 50 μM PUFA overnight): almost no effect |
| CC/C=C\C/C=C\C/C=C\C/C=C\C/C=C\CCCC(=O)O [eicosapentaenoic acid] |  | 65% | 5.3% |  |
| CCCCCC/C=C\CCCCCCCC(=O)O [palmitoleic acid] | no effect |  |  |  |
